Experimental data published in the NIST ThermoML archive (doi:10.1016/j.jct.2010.11.014).
± gives the expanded uncertainty stated by the source.

How the values were obtained:
[1] = molar heat capacity at constant pressure; xn = mol fraction of the nth substance listed; details: 101.3 kPa, Liquid, Adiabatic Solution Calorimetry
[2] = excess molar enthalpy (molar enthalpy of mixing); xn = mol fraction of the nth substance listed; details: 298.15 K, 101.3 kPa, Liquid, Adiabatic Solution Calorimetry

Structure (SMILES) | molar heat capacity at constant pressure ([1]; 298.15 K, x1 = 0.2) [J/K/mol] | molar heat capacity at constant pressure ([1]; 298.15 K, x1 = 0.4) [J/K/mol] | molar heat capacity at constant pressure ([1]; 298.15 K, x1 = 0.6) [J/K/mol] | molar heat capacity at constant pressure ([1]; 298.15 K, x1 = 0.8) [J/K/mol] | molar heat capacity at constant pressure ([1]; 298.15 K, x1 = 1) [J/K/mol] | molar heat capacity at constant pressure ([1]; 303.15 K, x1 = 0.2) [J/K/mol] | molar heat capacity at constant pressure ([1]; 303.15 K, x1 = 0.4) [J/K/mol] | molar heat capacity at constant pressure ([1]; 303.15 K, x1 = 0.6) [J/K/mol] | molar heat capacity at constant pressure ([1]; 303.15 K, x1 = 0.8) [J/K/mol] | molar heat capacity at constant pressure ([1]; 303.15 K, x1 = 1) [J/K/mol] | molar heat capacity at constant pressure ([1]; 313.15 K, x1 = 0.2) [J/K/mol] | molar heat capacity at constant pressure ([1]; 313.15 K, x1 = 0.4) [J/K/mol] | molar heat capacity at constant pressure ([1]; 313.15 K, x1 = 0.6) [J/K/mol] | molar heat capacity at constant pressure ([1]; 313.15 K, x1 = 0.8) [J/K/mol] | molar heat capacity at constant pressure ([1]; 313.15 K, x1 = 1) [J/K/mol] | molar heat capacity at constant pressure ([1]; 323.15 K, x1 = 0.2) [J/K/mol] | molar heat capacity at constant pressure ([1]; 323.15 K, x1 = 0.4) [J/K/mol] | molar heat capacity at constant pressure ([1]; 323.15 K, x1 = 0.6) [J/K/mol] | molar heat capacity at constant pressure ([1]; 323.15 K, x1 = 0.8) [J/K/mol] | molar heat capacity at constant pressure ([1]; 323.15 K, x1 = 1) [J/K/mol] | further results
CCn1cc[n+](C)c1.COP(=O)([O-])OC [1-ethyl-3-methylimidazolium dimethylphosphate] + CCO | 153.21 ± 38 | 220.84 ± 55 | 272.51 ± 72 | 324.35 ± 90 | 329.37 ± 110 | 171.31 ± 38 | 235.29 ± 55 | 289.67 ± 72 | 348.58 ± 90 | 346.23 ± 110 | 205.63 ± 38 | 282.28 ± 55 | 340.78 ± 72 | 404 ± 90 | 381.64 ± 110 | 258.83 ± 38 | 335.32 ± 55 | 398.34 ± 72 | 448.05 ± 90 | 411.74 ± 110 | excess molar enthalpy ([2]; x1 = 0.15): -0.428 ± 0.0206 kcal/mol; excess molar enthalpy ([2]; x1 = 0.31): -0.656 ± 0.0206 kcal/mol; excess molar enthalpy ([2]; x1 = 0.47): -0.57 ± 0.0206 kcal/mol; excess molar enthalpy ([2]; x1 = 0.59): -0.522 ± 0.0206 kcal/mol; excess molar enthalpy ([2]; x1 = 0.8): -0.286 ± 0.0203 kcal/mol
CCn1cc[n+](C)c1.COP(=O)([O-])OC [1-ethyl-3-methylimidazolium dimethylphosphate] + CO | 147.03 ± 28 |  |  |  | 329.37 ± 91 | 163.64 ± 28 |  |  |  | 346.23 ± 91 | 215.28 ± 28 |  |  |  | 381.64 ± 91 | 252.08 ± 28 |  |  |  | 411.74 ± 91 | molar heat capacity at constant pressure ([1]; 298.15 K, x1 = 0.41): 213.84 ± 44 J/K/mol; molar heat capacity at constant pressure ([1]; 298.15 K, x1 = 0.59): 269.26 ± 59 J/K/mol; molar heat capacity at constant pressure ([1]; 298.15 K, x1 = 0.77): 297.59 ± 73 J/K/mol; molar heat capacity at constant pressure ([1]; 303.15 K, x1 = 0.41): 229.84 ± 44 J/K/mol; molar heat capacity at constant pressure ([1]; 303.15 K, x1 = 0.59): 289.07 ± 59 J/K/mol; molar heat capacity at constant pressure ([1]; 303.15 K, x1 = 0.77): 306.37 ± 73 J/K/mol; molar heat capacity at constant pressure ([1]; 313.15 K, x1 = 0.41): 271.99 ± 44 J/K/mol; molar heat capacity at constant pressure ([1]; 313.15 K, x1 = 0.59): 337.82 ± 59 J/K/mol; molar heat capacity at constant pressure ([1]; 313.15 K, x1 = 0.77): 334.16 ± 73 J/K/mol; molar heat capacity at constant pressure ([1]; 323.15 K, x1 = 0.41): 312.33 ± 44 J/K/mol; molar heat capacity at constant pressure ([1]; 323.15 K, x1 = 0.59): 370.93 ± 59 J/K/mol; molar heat capacity at constant pressure ([1]; 323.15 K, x1 = 0.77): 371.12 ± 73 J/K/mol; excess molar enthalpy ([2]; x1 = 0.1): -0.376 ± 0.043 kcal/mol; excess molar enthalpy ([2]; x1 = 0.3): -0.803 ± 0.043 kcal/mol; excess molar enthalpy ([2]; x1 = 0.5): -0.801 ± 0.043 kcal/mol; excess molar enthalpy ([2]; x1 = 0.65): -0.62 ± 0.043 kcal/mol; excess molar enthalpy ([2]; x1 = 0.79): -0.435 ± 0.043 kcal/mol
CCn1cc[n+](C)c1.COP(=O)([O-])OC [1-ethyl-3-methylimidazolium dimethylphosphate] + O |  | 167.14 ± 31 | 224.66 ± 43 | 279.14 ± 56 | 329.37 ± 69 |  | 176.74 ± 31 | 242.41 ± 43 | 288.72 ± 56 | 346.23 ± 69 |  | 203.5 ± 31 | 276.49 ± 43 | 323.78 ± 56 | 381.64 ± 69 |  | 228.82 ± 31 | 304.05 ± 43 | 352.68 ± 56 | 411.74 ± 69 | molar heat capacity at constant pressure ([1]; 298.15 K, x1 = 0.18): 119.02 ± 17 J/K/mol; molar heat capacity at constant pressure ([1]; 303.15 K, x1 = 0.18): 125.02 ± 17 J/K/mol; molar heat capacity at constant pressure ([1]; 313.15 K, x1 = 0.18): 134.91 ± 17 J/K/mol; molar heat capacity at constant pressure ([1]; 323.15 K, x1 = 0.18): 148.41 ± 17 J/K/mol; excess molar enthalpy ([2]; x1 = 0.18): -1.26 ± 0.0287 kcal/mol; excess molar enthalpy ([2]; x1 = 0.31): -1.51 ± 0.0287 kcal/mol; excess molar enthalpy ([2]; x1 = 0.45): -1.44 ± 0.0287 kcal/mol; excess molar enthalpy ([2]; x1 = 0.64): -1.15 ± 0.0287 kcal/mol; excess molar enthalpy ([2]; x1 = 0.82): -0.604 ± 0.0287 kcal/mol
